The results in this text go back to patent US11168102B1, “Bicyclic heteroaryl compounds and uses thereof” (Revolution Medicines, Inc., priority 2019, dated 2021).

The test system of one assay is cellular pERK in PC-9 cells (EGFR Ex19Del). Nature of the assay: Potency assay: pERK (AlphaLISA SureFire Ultra p-ERK1/2) in PC-9 cells. To be noted: Homo sapiens, PC-9, 1 h, PC-9 cells (EGFR Ex19Del), 1 hour incubation, AlphaLISA SureFire Ultra p-ERK1/2; read-out: SOS1 pERK IC50. Type of assay: cell-based.
One may read the IC50 as the point on the concentration scale where inhibition reaches its midpoint. Regarding `CO[C@]1(c2cc3c(N[C@H](C)c4cccc(C(F)F)c4F)nc(C)nc3n(C)c2=O)CCN(C(C)=O)C1` [Example 32-62], the IC50 was determined as 10.8 nM.
Same read-out and setting: the figure for `C[C@@H](Nc1ncnc2c1cc(C1CC3(C1)CS(=O)(=O)C3)c(=O)n2C)c1cccc(C(F)F)c1F` [Example 33, 6-(4-{[(1R)-1-[3-(difluoromethyl)-2-fluorophenyl]ethyl]amino}-8-methyl-7-oxo-7H,8H-pyrido[2,3-d]pyrimidin-6-yl)-2λ^6-thiaspiro[3.3]heptane-2,2-dione] is 145 nM; for `C[C@@H](Nc1ncnc2c1cc(C1CCC3(CC1)CS(=O)(=O)C3)c(=O)n2C)c1cccc(C(F)F)c1F` [Example 33-2] it is 71.6 nM; for `C[C@@H](Nc1ncnc2c1cc(C1CCS(=O)(=O)CC1)c(=O)n2C)c1cccc2c1OCC2(F)F` [Example 33-3] it is 34.8 nM.
On the same count and under the same terms, the figure for `C[C@@H](Nc1ncnc2c1cc(C1CCS(=O)(=O)CC1)c(=O)n2C)c1cccc(C(F)F)c1Cl` [Example 33-4] is 92.5 nM.
Still for that read-out and setting: then `Cc1c(C(F)F)cccc1[C@@H](C)Nc1ncnc2c1cc(C1CCS(=O)(=O)CC1)c(=O)n2C` [Example 33-5], with 41.2 nM; and `C[C@@H](Nc1ncnc2c1cc(C1CN(S(C)(=O)=O)C1)c(=O)n2C)c1cccc(C(F)F)c1F` [Example 33-7], with 521 nM.
In the case of `C[C@@H](Nc1ncnc2c1cc(C1CCN(S(C)(=O)=O)C1)c(=O)n2C)c1cccc(C(F)F)c1F` (stereo partly drawn) [Example 33-10], the IC50 came out at 335 nM.
The same measure, in the same setting: the figure for `CC(=O)N1CC(c2cc3c(N[C@H](C)c4cccc(C(F)F)c4F)ncnc3n(C)c2=O)C1` [Example 33-11] is 169 nM; for `CC(=O)N1CC[C@@H](c2cc3c(N[C@H](C)c4cccc(C(F)F)c4F)ncnc3n(C)c2=O)C1` [Example 33-14] it is 271 nM.
The same measure, in the same setting: the figure for `CC(=O)N1CC[C@H](c2cc3c(N[C@H](C)c4cccc(C(F)F)c4F)ncnc3n(C)c2=O)C1` [Example 33-15] is 113 nM.
On the same count and under the same terms, then `C[C@@H](Nc1ncnc2c1cc(C1CS(=O)(=O)C1)c(=O)n2C)c1cccc(C(F)F)c1F` [Example 33-16], with 87.9 nM; and `C[C@@H](Nc1ncnc2c1cc(C1CCS(=O)(=O)CC1)c(=O)n2C)c1cccc(-c2ccccc2CN)c1` [Example 33-17], with 285 nM.
As for `C[C@@H](Nc1ncnc2c1cc(C1CCS(=O)(=O)CC1)c(=O)n2C)c1ccc(-c2ccccc2CN)s1` [Example 33-18], the IC50 turned out to be 53.2 nM.
On the same count and under the same terms, then `C[C@@H](Nc1ncnc2c1cc(C1CCS(=O)(=O)CC1)c(=O)n2C)c1ccc(-c2ccccc2CCN)s1` [Example 33-19], with 182 nM; and `C[C@@H](Nc1ncnc2c1cc(C1CCS(=O)(=NC(N)=O)CC1)c(=O)n2C)c1cccc(C(F)F)c1F` (stereo partly drawn) [Example 33-24], with 293 nM; and `[2H]C(=O)N1CCC(c2cc3c(N[C@H](C)c4cccc(C(F)F)c4F)ncnc3n(C)c2=O)CC1` [Example 33-25], with 73.8 nM.
`CC(=O)N1CCC(C#N)(c2cc3c(N[C@H](C)c4cccc(C(F)F)c4F)ncnc3n(C)c2=O)CC1` [Example 36, 1-acetyl-4-(4-{[(1R)-1-[3-(difluoromethyl)-2-fluorophenyl]ethyl]amino}-8-methyl-7-oxo-7H,8H-pyrido[2,3-d]pyrimidin-6-yl)piperidine-4-carbonitrile]: the IC50 was determined as 28.1 nM.
The same measure, in the same setting: the figure for `C[C@@H](Nc1ncnc2c1cc(C1(C#N)CCS(=O)(=O)CC1)c(=O)n2C)c1cccc(C(F)F)c1F` [Example 36-1] is 11.6 nM; for `CC(=O)N1CC(C#N)(c2cc3c(N[C@H](C)c4cccc(C(F)F)c4F)ncnc3n(C)c2=O)C1` [Example 36-3] it is 181 nM.
Still for that read-out and setting: then `C[C@@H](Nc1ncnc2c1cc(C1(C#N)CCN(S(C)(=O)=O)C1)c(=O)n2C)c1cccc(C(F)F)c1F` (stereo partly drawn) [Example 36-4], with 91 nM.
On to `CC(=O)N1CCC(C#N)(c2cc3c(N[C@H](C)c4cccc(C(F)F)c4F)ncnc3n(C)c2=O)C1` (stereo partly drawn) [Example 36-5], for which the IC50 worked out at 124 nM.
In the case of `C[C@@H](Nc1ncnc2c1cc(C1(C#N)CC3(C1)CS(=O)(=O)C3)c(=O)n2C)c1cccc(C(F)F)c1F` [Example 36-6], the IC50 came out at 33.3 nM.
On the same count and under the same terms, then `C[C@@H](Nc1ncnc2c1cc(C1(C#N)CN(S(C)(=O)=O)C1)c(=O)n2C)c1cccc(C(F)F)c1F` [Example 36-7], with 772 nM.
On the same count and under the same terms, then `C[C@@H](Nc1ncnc2c1cc(C1(C#N)CCC3(CC1)CS(=O)(=O)C3)c(=O)n2C)c1cccc(C(F)F)c1F` [Example 36-8], with 38.8 nM.
Still for that read-out and setting: the figure for `CC(=O)N1CCCC(C#N)(c2cc3c(N[C@H](C)c4cccc(C(F)F)c4F)ncnc3n(C)c2=O)CC1` (stereo partly drawn) [Example 36-9] is 86.9 nM.
`CC(=O)N1CC[C@](C#N)(c2cc3c(N[C@H](C)c4cccc(C(F)F)c4F)ncnc3n(C)c2=O)C1` [Example 36-10]: the concentration for half-maximal inhibition (IC50) came to 44 nM.
The same measure, in the same setting: the figure for `CC(=O)N1CC[C@@](C#N)(c2cc3c(N[C@H](C)c4cccc(C(F)F)c4F)ncnc3n(C)c2=O)C1` [Example 36-11] is 268 nM; for `C[C@@H](Nc1ncnc2c1cc(C1(C)CCS(=O)(=O)CC1)c(=O)n2C)c1cccc(C(F)F)c1F` [Example 37, 4-(4-{[(1R)-1-[3-(difluoromethyl)-2-fluorophenyl]ethyl]amino}-8-methyl-7-oxo-7H,8H-pyrido[2,3-d]pyrimidin-6-yl)-4-methyl-1λ^6-thiane-1,1-dione] it is 49.9 nM; for `CC(=O)N1CCC(c2cc3c(N[C@H](C)c4cccc(C(F)F)c4C(F)F)ncnc3n(C)c2=O)CC1` [Example 38, 6-(1-acetylpiperidin-4-yl)-4-{[(1R)-1-[2,3-bis(difluoromethyl)phenyl]ethyl]amino}-8-methyl-7H,8H-pyrido[2,3-d]pyrimidin-7-one] it is 137 nM.
Take `CC(=O)N1CCC(c2cc3c(N[C@H](C)c4cccc(C(F)F)c4CF)ncnc3n(C)c2=O)CC1` [Example 39, 6-(1-acetylpiperidin-4-yl)-4-{[(1R)-1-[3-(difluoromethyl)-2-(fluoromethyl)phenyl]ethyl]amino}-8-methyl-7H,8H-pyrido[2,3-d]pyrimidin-7-one]: the IC50 turned out to be 1560 nM.
Same read-out and setting: the figure for `C[C@@H](Nc1ncnc2c1cc(C1=CCS(=O)(=O)CC1)c(=O)n2C)c1cccc(C(F)(F)C#N)c1` [Example 40, 2-{3-[(1R)-1-{[6-(1,1-dioxo-3,6-dihydro-2H-1λ^6-thiopyran-4-yl)-8-methyl-7-oxo-7H,8H-pyrido[2,3-d]pyrimidin-4-yl]amino}ethyl]phenyl}-2,2-difluoroacetonitrile] is 1370 nM.
On the same count and under the same terms, the figure for `C[C@@H](Nc1ncnc2c1cc(C1=CCS(=O)(=O)CC1)c(=O)n2C)c1cccc(C(F)(F)C#N)c1F` [Example 41, 2-{3-[(1R)-1-{[6-(1,1-dioxo-3,6-dihydro-2H-1λ^6-thiopyran-4-yl)-8-methyl-7-oxo-7H,8H-pyrido[2,3-d]pyrimidin-4-yl]amino}ethyl]-2-fluorophenyl}-2,2-difluoroacetonitrile] is 4480 nM.

Staying with this assay, now noted: Homo sapiens, PC-9, 1 h, read-out: SOS1 pERK IC50.
Take `C[C@@H](Nc1ncnc2c1cc(C1(C#N)CCN(C)CC1)c(=O)n2C)c1cccc(C(F)F)c1F` [Example 36-2]: the IC50 is 63 nM.
On the same count and under the same terms, the figure for `C[C@@H](Nc1ncnc2c1cc(C1(C#N)CCN(C3COC3)CC1)c(=O)n2C)c1cccc(C(F)F)c1F` [Example 36-16] is 222 nM.

Still in this assay, the particulars now being: PC-9 cells (EGFR Ex19Del), 1 hour incubation, AlphaLISA SureFire Ultra p-ERK1/2; read-out: SOS1 pERK IC50.
In the case of `COC1(c2cc3c(N[C@H](C)c4cccc(C(F)F)c4F)ncnc3n(C)c2=O)CCS(=O)(=O)C(C)C1` (stereo partly drawn) [Example 32-64], the IC50 was determined as 154 nM.
Same read-out and setting: the figure for `COC1(c2cc3c(N[C@H](C)c4cccc(C(F)F)c4F)ncnc3n(C)c2=O)CCS(=O)(=O)C(C)C1` (stereo partly drawn) [Example 32-65] is 50.3 nM; for `COC1(c2cc3c(N[C@H](C)c4cccc(C(F)F)c4F)ncnc3n(C)c2=O)CCS(=O)(=O)C(C)C1` (stereo partly drawn) [Example 32-66] it is 127 nM; for `CC1CC(c2cc3c(N[C@H](C)c4cccc(C(F)F)c4F)ncnc3n(C)c2=O)CCS1(=O)=O` (stereo partly drawn) [Example 33-8] it is 54.7 nM.
Same read-out and setting: the figure for `CC1CC(c2cc3c(N[C@H](C)c4cccc(C(F)F)c4F)ncnc3n(C)c2=O)CCS1(=O)=O` (stereo partly drawn) [Example 33-9] is 270 nM; for `CC1CC(c2cc3c(N[C@H](C)c4cccc(C(F)F)c4F)ncnc3n(C)c2=O)CCS1(=O)=O` (stereo partly drawn) [Example 33-12] it is 40.7 nM.
The same measure, in the same setting: the figure for `CC1CC(c2cc3c(N[C@H](C)c4cccc(C(F)F)c4F)ncnc3n(C)c2=O)CCS1(=O)=O` (stereo partly drawn) [Example 33-13] is 21 nM.
As to `C[C@@H](Nc1ncnc2c1cc(C1CCS(=O)(=O)C1)c(=O)n2C)c1cccc(C(F)F)c1F` (stereo partly drawn) [Example 33-20], the IC50 was determined as 52.7 nM.
Still for that read-out and setting: the figure for `C[C@@H](Nc1ncnc2c1cc(C1CCS(=O)(=O)C1)c(=O)n2C)c1cccc(C(F)F)c1F` (stereo partly drawn) [Example 33-21] is 52.2 nM; for `C[C@@H](Nc1ncnc2c1cc(C1CCP(C)(=O)CC1)c(=O)n2C)c1cccc(C(F)F)c1F` (stereo partly drawn) [Example 33-22] it is 1200 nM.
Same read-out and setting: then `C[C@@H](Nc1ncnc2c1cc(C1CCP(C)(=O)CC1)c(=O)n2C)c1cccc(C(F)F)c1F` (stereo partly drawn) [Example 33-23], with 85.4 nM; and `C[C@@H](Nc1ncnc2c1cc(C1CCS(=N)(=O)CC1)c(=O)n2C)c1cccc(C(F)F)c1F` (stereo partly drawn) [Example 35, (R)-4-((1-(3-(difluoromethyl)-2-fluorophenyl)ethyl)amino)-6-(1-imino-1-oxidohexahydro-1λ^6-thiopyran-4-yl)-8-methylpyrido[2,3-d]pyrimidin-7(8H)-one], with 127 nM; and `C[C@@H](Nc1ncnc2c1cc(C1(C#N)CCP(C)(=O)CC1)c(=O)n2C)c1cccc(C(F)F)c1F` (stereo partly drawn) [Example 36-12], with 448 nM.
On the same count and under the same terms, then `C[C@@H](Nc1ncnc2c1cc(C1(C#N)CCP(C)(=O)CC1)c(=O)n2C)c1cccc(C(F)F)c1F` (stereo partly drawn) [Example 36-13], with 81.2 nM; and `C[C@@H](Nc1ncnc2c1cc(C1(C#N)CCS(=O)(=O)C1)c(=O)n2C)c1cccc(C(F)F)c1F` (stereo partly drawn) [Example 36-14], with 207 nM.
Take `C[C@@H](Nc1ncnc2c1cc(C1(C#N)CCS(=O)(=O)C1)c(=O)n2C)c1cccc(C(F)F)c1F` (stereo partly drawn) [Example 36-15]: the IC50 worked out at 58.9 nM.
